Test system: actin
Test: polymerization of actin (in vitro test)
Assay type: cell-based
Settings: compared to control
Text: Typically, the selected or purified maltodextrins described herein have the following properties: • a moisturizing and gelling (film-forming) action; • a stimulating action of fibroblasts and keratinocytes proliferation, responsible for the formation of granulation tissue and producers of collagen, elastin, proteoglycans, and other glycoproteins that intervene in the tissue regeneration phase • a skin regenerating action, found with representative in vitro tests such as synthesis of fibronectin, polymerization of actin, expression of enzymes such as Hyaluronan Synthase-2 • a skin protective action following the formation of an epidermal barrier

phosphatidic acid [PA]
polymerization of actin increase: 100%

From patent EP3760185A1, “COSMETIC COMPOSITION TO PREVENT AND DELAY SKIN AGING” (Riccio, Rodolfo, priority 2019, dated 2021)
